ChEMBL document CHEMBL5653615 (J Biol Chem, 2013)

Key:
[1] = target: T1, Ephrin type-B receptor 2 (Homo sapiens) (UniProt P29323); assay: Inhibition of human EPHB2 at 1.82 nM by HotSpot assay relative to control
T1 sequence (whole entry): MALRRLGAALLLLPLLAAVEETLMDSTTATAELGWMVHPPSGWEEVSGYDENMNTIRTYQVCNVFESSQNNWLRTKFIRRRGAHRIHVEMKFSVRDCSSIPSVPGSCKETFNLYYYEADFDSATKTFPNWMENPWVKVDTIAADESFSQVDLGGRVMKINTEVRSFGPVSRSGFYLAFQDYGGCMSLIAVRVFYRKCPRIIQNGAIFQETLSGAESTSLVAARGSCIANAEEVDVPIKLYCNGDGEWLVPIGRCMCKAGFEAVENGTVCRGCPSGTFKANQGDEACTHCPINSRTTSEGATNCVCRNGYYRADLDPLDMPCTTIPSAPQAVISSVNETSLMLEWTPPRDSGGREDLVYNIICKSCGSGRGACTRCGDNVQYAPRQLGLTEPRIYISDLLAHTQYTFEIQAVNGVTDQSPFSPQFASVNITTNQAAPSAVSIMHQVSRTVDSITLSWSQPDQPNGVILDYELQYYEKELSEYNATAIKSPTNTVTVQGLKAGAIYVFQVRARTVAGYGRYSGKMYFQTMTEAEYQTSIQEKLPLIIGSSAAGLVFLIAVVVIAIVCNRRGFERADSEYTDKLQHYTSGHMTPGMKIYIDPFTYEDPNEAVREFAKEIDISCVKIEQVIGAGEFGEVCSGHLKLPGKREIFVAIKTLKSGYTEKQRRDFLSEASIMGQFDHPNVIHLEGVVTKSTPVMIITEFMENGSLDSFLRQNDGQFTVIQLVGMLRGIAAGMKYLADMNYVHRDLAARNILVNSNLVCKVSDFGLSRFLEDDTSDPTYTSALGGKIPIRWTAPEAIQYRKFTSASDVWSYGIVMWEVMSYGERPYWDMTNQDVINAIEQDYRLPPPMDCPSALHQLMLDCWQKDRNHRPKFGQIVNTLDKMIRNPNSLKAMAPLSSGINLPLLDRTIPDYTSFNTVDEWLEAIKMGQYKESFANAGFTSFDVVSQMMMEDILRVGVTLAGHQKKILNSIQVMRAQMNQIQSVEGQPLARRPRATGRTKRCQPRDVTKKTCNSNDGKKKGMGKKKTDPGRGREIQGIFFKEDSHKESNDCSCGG

[2] = target: Fibroblast growth factor receptor 3 (Homo sapiens) (UniProt P22607); assay: Inhibition of human FGFR3 at 18.6 nM by HotSpot assay relative to control
[3] = target: MAP kinase-activated protein kinase 3 (Homo sapiens) (UniProt Q16644); assay: Inhibition of human MAPKAPK3 at 18.6 nM by HotSpot assay relative to control
[4] = target: T2, Tyrosine-protein kinase Mer (Homo sapiens) (UniProt Q12866); assay: Inhibition of human c-MER at 18.6 nM by HotSpot assay relative to control
T2 sequence (whole entry): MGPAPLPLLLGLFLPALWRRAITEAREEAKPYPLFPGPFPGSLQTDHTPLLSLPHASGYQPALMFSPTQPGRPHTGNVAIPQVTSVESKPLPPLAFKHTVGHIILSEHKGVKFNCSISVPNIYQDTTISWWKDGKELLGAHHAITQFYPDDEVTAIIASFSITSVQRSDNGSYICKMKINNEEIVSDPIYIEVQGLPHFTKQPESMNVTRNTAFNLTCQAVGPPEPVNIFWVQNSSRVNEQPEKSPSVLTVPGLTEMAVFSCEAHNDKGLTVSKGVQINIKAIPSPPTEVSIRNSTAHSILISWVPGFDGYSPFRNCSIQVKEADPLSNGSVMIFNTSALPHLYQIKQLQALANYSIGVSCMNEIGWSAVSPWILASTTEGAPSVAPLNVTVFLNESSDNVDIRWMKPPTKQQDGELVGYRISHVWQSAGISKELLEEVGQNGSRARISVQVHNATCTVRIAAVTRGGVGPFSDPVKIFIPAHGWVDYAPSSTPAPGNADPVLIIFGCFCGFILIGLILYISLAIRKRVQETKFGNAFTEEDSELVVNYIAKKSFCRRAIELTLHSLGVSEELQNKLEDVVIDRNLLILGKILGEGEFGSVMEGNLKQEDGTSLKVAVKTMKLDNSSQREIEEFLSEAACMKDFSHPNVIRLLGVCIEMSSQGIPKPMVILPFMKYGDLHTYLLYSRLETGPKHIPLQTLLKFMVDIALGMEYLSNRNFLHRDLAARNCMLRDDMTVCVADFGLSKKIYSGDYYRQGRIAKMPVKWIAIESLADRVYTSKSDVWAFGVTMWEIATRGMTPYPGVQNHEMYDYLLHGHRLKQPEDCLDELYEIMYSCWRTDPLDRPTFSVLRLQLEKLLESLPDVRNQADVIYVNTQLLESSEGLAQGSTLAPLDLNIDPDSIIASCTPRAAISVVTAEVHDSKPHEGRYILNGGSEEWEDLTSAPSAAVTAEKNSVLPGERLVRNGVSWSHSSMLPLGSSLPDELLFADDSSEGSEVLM

MAP kinase-activated protein kinase 3 (Homo sapiens), sequence (Q16644 whole entry, looked up): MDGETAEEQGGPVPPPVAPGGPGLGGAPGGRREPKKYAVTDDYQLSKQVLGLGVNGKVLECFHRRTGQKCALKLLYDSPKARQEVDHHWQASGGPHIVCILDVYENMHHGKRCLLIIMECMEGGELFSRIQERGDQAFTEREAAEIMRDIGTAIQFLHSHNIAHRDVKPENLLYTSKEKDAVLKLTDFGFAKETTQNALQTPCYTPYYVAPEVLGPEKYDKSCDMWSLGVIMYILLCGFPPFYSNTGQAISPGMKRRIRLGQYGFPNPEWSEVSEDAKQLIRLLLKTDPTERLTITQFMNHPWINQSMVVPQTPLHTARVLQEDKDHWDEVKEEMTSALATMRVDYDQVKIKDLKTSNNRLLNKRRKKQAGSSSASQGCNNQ
Fibroblast growth factor receptor 3 (Homo sapiens), sequence (P22607 23-806 limits assumed): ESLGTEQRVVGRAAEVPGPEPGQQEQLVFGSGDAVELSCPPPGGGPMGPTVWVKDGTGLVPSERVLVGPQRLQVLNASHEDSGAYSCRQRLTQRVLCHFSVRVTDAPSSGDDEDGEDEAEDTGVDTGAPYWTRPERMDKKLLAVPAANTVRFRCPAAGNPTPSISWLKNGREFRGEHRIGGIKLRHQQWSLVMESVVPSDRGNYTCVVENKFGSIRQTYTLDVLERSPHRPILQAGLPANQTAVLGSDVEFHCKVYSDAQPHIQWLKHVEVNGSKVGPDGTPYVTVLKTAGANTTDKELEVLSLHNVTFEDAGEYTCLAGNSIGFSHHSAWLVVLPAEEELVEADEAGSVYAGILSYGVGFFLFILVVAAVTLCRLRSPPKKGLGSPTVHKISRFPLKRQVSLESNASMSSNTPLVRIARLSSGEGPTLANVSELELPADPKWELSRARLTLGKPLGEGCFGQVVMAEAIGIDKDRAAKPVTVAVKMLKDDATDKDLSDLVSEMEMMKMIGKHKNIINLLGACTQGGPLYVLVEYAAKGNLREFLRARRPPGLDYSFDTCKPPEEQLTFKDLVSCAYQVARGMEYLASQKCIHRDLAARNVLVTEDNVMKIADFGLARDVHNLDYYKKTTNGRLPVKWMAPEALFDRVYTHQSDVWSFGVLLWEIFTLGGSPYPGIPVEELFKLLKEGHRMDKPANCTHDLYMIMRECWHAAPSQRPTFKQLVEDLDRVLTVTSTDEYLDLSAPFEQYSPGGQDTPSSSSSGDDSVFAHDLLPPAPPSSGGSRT

SMILES	inhibition [1]	inhibition [2]	inhibition [3]	inhibition [4]
C[C@@]1(C(=O)Nc2ccc(F)nc2)CCCN1c1nc(Nc2cc(C3CC3)n[nH]2)c2cccn2n1	-7.51%	–	–	–
C[C@]1(O)C[C@@H](c2nc(-c3ccc4ccc(-c5ccccc5)nc4c3)c3c(N)nccn32)C1	–	8.2%	0.25%	-0.54%
